These results are taken from patent US10138232B2, “Naphthyridinedione derivatives” (NOVARTIS AG, priority 2014, dated 2018).

One may read the AC50 as the concentration giving half of the maximal activity seen.

This test has as its system CFTR-Y122X (GFP-CFTR-Y122X-Renilla construct) in Hek293 cell lines. Nature of the test: CFTR-Y122X assay (dual reporter readthrough, Renilla luminescence). Format: cell-based. Conditions: Homo sapiens, compounds incubated 24 h, tested up to 100 μM; for AC50: nonsense mutation suppression in the CFTR-Y122X assay; for Emax: nonsense mutation suppression, 100% activity = 14 mM paromomycin, read-out: Amax. The text has this: In particular, compounds of formula (I), (I′), (Ia), (Ia′) or (Ib) I act as nonsense mutation suppressors on frequent PTCs, e.g. on Y122X in the mRNA of the cystic fibrosis conductance regulator protein (CFTR). This can be determined in vitro, for example, using cell lines expressing GFP-CFTR-Y122X-Renilla constructs as described herein.
Activity of compounds of the present invention was examined in recombinant, dual reporter isogenic Hek293 cell lines (“CFTR-Y122X assay”). The engineered reporter constructs contained the 18 bp sequence strech corresponding to a common Y122X PTC mutation in CFTR class I mutant patients (see Sermet-Gaudelus, BMC Medicine, 2007, 5(5)). Instead of a tyrosine (Y) in position 122 of the CFTR protein a TGA stop codon interrupts the open reading frame (Y122X) of the corresponding mRNA. This TGA stop codon triplet (followed by the pyrimidine base cytosine) is permissive to aminoglycoside mediated translational readthrough which served as positive control for high throughput screening. A corresponding TAA stop codon variant and a wildtype non mutated construct was used for confirmation and counter screening. The CFTR sequence was sandwiched between an eGFP reporter, and a triple myc tag sequence fused to a full length Renilla reporter. All sequences, including an intron containing one positioned pre-eGFP (b-globin intron) were cloned in frame. The corresponding expression constructs were stably expressed in the isogenic HEK-R4 cell host (Invitrogen Incorp.) and selected by blasticidin resistance. The isogenic integration of the construct minimizes gene dose effects and improves assay reproducibility. Stably integrated single cell derived clones were selected and characterized for aminoglycoside mediated readthrough. […] Readthrough of Y122X accumulates an intracellular localized fusion protein approximately 65.5 kDa in size as controlled by western blot analysis and immunofluorescence using an anti-renilla antibody. The eGFP reporter pre-PTC mutation serves as visual control for genetic stability of the screening clones and minimizes protein degradation of small fusion protein amounts. In the assay, compound concentration was 10 μM. In miniaturized 1536 well format 2000 cells were dispensed in 4 μl/well and incubated for 24 h at 37° C., 5% CO2. 40 nl compounds were placed on the cells with control wells containing 1 ul Paramomycin and 14.4 mM final concentration. Compounds were incubated for 24 h. Renilla Glo substrate (2.5 ul) was added and plates were centrifuged and processed for luminescence measurement using various readers. Activity calculation was done using the equation: A1(%)=100*(S−NC)/(AC−NC) where AC, NC and S correspond to active controls (injection of Stimulation buffer=100% stimulation), neutral controls (buffer injection which Iloprost EC10) and screening samples (S). NC corresponds to 0% activity whereas AC is 100% activity (14 mM paromomycin). False positive artefacts were removed in confirmation and validation screening using the same assay format followed by counterscreening using the respective wildtype construct (w/o PTC mutation) cell model. Compounds were tested up to 100 μM compound concentration.

In the case of `O=c1c2ccccc2[nH]c2cc(C3CCC3)n(-c3ccccc3)c(=O)c12` [Example 1.1, 3-Cyclobutyl-2-phenylbenzo[b][1,6]naphthyridine-1,10(2H,5H)-dione], half-maximal activity (AC50) was put at 0.6 µM and the Emax was determined as 219%.
Turning to `Cn1c2ccccc2c(=O)c2c(=O)n(-c3ccccc3)c(C3CCC3)cc21` [Example 1.2, 3-Cyclobutyl-5-methyl-2-phenylbenzo[b][1,6]naphthyridine-1,10(2H,5H)-dione], the AC50 turned out to be 1 µM and the Emax was 260%.
On the same counts, the results for `CC(C)c1cc2[nH]c3ccccc3c(=O)c2c(=O)n1-c1ccccc1` [Example 1.3, 3-isopropyl-2-phenylbenzo[b][1,6]naphthyridine-1,10(2H,5H)-dione] are 1.1 µM and 281%.
The corresponding values for `CC(C)c1cc2c(c(=O)c3ccccc3n2C)c(=O)n1-c1ccccc1` [Example 1.4, 3-isopropyl-5-methyl-2-phenylbenzo[b][1,6]naphthyridine-1,10(2H,5H)-dione] are 3.2 µM and 324%.
The corresponding values for `CC(C)c1cc2[nH]c3ccc(F)cc3c(=O)c2c(=O)n1-c1ccccc1` [Example 1.5, 8-fluoro-3-isopropyl-2-phenylbenzo[b][1,6]naphthyridine-1,10(2H,5H)-dione] are 1.8 µM and 358%.
With `CC(C)c1cc2c(c(=O)c3cc(F)ccc3n2C)c(=O)n1-c1ccccc1` [Example 1.6, 8-fluoro-3-isopropyl-5-methyl-2-phenylbenzo[b][1,6]naphthyridine-1,10(2H,5H)-dione], the activity was half-maximal at 7.7 µM (AC50) and the Emax turned out to be 507%.
The corresponding values for `CC(C)c1cc2[nH]c3ccc(Cl)cc3c(=O)c2c(=O)n1-c1ccccc1` [Example 1.7, 8-chloro-3-isopropyl-2-phenylbenzo[b][1,6]naphthyridine-1,10(2H,5H)-dione] are 2.4 µM and 215%.
Regarding `CC(C)c1cc2c(c(=O)c3cc(Cl)ccc3n2C)c(=O)n1-c1ccccc1` [Example 1.8, 8-chloro-3-isopropyl-5-methyl-2-phenylbenzo[b][1,6]naphthyridine-1,10(2H,5H)-dione], the half-maximal activity concentration (AC50) turned out to be 14.8 µM and the Emax was 307%.
On the same counts, the results for `Cc1ccc2[nH]c3cc(C(C)C)n(-c4ccccc4)c(=O)c3c(=O)c2c1` [Example 1.9, 3-isopropyl-8-methyl-2-phenylbenzo[b][1,6]naphthyridine-1,10(2H,5H)-dione] are 1.2 µM and 249%.
On the same counts, the results for `Cc1ccc2c(c1)c(=O)c1c(=O)n(-c3ccccc3)c(C(C)C)cc1n2C` [Example 1.10, 3-isopropyl-5,8-dimethyl-2-phenylbenzo[b][1,6]naphthyridine-1,10(2H,5H)-dione] are 7.3 µM and 409%.
On the same counts, the results for `CC(C)c1cc2c(c(=O)c3cccc4c3n2CC4)c(=O)n1-c1ccccc1` [Example 1.11, 9-isopropyl-8-phenyl-1H-indolo[1,7-ab][1,6]naphthyridine-6,7(2H,8H)-dione] are 4 µM and 276%.
`CC(C)c1cc2[nH]c3sccc3c(=O)c2c(=O)n1-c1ccccc1` [Example 1.12, 7-isopropyl-6-phenylthieno[2,3-b][1,6]naphthyridine-4,5(6H,9H)-dione]: the AC50 is 19 µM and the Emax was found to be 248%.
On the same counts, the results for `CC(C)c1cc2c(c(=O)c3ccsc3n2C)c(=O)n1-c1ccccc1` [Example 1.13, 7-isopropyl-9-methyl-6-phenylthieno[2,3-b][1,6]naphthyridine-4,5(6H,9H)-dione] are 8.6 µM and 445%.
Consider `Cc1cc2c(=O)c3c(=O)n(-c4ccccc4)c(C(C)C)cc3[nH]c2s1` [Example 1.14, 7-isopropyl-2-methyl-6-phenylthieno[2,3-b][1,6]naphthyridine-4,5(6H,9H)-dione], for which the Emax was 35%.
In the case of `Cc1cc2c(=O)c3c(=O)n(-c4ccccc4)c(C(C)C)cc3n(C)c2s1` [Example 1.15, 7-isopropyl-2,9-dimethyl-6-phenylthieno[2,3-b][1,6]naphthyridine-4,5(6H,9H)-dione], the AC50 turned out to be 5.5 µM and the Emax was determined as 224%.
The corresponding values for `CC(C)c1cc2[nH]c3ccsc3c(=O)c2c(=O)n1-c1ccccc1` [Example 1.16, 6-isopropyl-7-phenylthieno[3,2-b][1,6]naphthyridine-8,9(4H,7H)-dione] are 1.6 µM and 344%.
In the case of `CC(C)c1cc2c(c(=O)c3sccc3n2C)c(=O)n1-c1ccccc1` [Example 1.17, 6-isopropyl-4-methyl-7-phenylthieno[3,2-b][1,6]naphthyridine-8,9(4H,7H)-dione], the AC50 was determined as 9.2 µM and the Emax amounted to 430%.
On the same counts, the results for `Cc1cc2[nH]c3cc(C(C)C)n(-c4ccccc4)c(=O)c3c(=O)c2s1` [Example 1.18, 6-isopropyl-2-methyl-7-phenylthieno[3,2-b][1,6]naphthyridine-8,9(4H,7H)-dione] are 3.9 µM and 240%.
The corresponding values for `Cc1cc2c(s1)c(=O)c1c(=O)n(-c3ccccc3)c(C(C)C)cc1n2C` [Example 1.19, 6-isopropyl-2,4-dimethyl-7-phenylthieno[3,2-b][1,6]naphthyridine-8,9(4H,7H)-dione] are 12.8 µM and 253%.
`Cc1csc2c(=O)c3c(=O)n(-c4ccccc4)c(C(C)C)cc3[nH]c12` [Example 1.20, 6-isopropyl-3-methyl-7-phenylthieno[3,2-b][1,6]naphthyridine-8,9(4H,7H)-dione]: the activity was half-maximal at 2.5 µM (AC50) and the Emax stood at 183%.
The corresponding values for `Cc1csc2c(=O)c3c(=O)n(-c4ccccc4)c(C(C)C)cc3n(C)c12` [Example 1.21, 6-isopropyl-3,4-dimethyl-7-phenylthieno[3,2-b][1,6]naphthyridine-8,9(4H,7H)-dione] are 5.4 µM and 379%.
The corresponding values for `CC(C)c1cc2[nH]c3c(c(=O)c2c(=O)n1-c1ccccc1)CCCC3` [Example 1.22, 3-isopropyl-2-phenyl-6,7,8,9-tetrahydrobenzo[b][1,6]naphthyridine-1,10(2H,5H)-dione] are 7.2 µM and 413%.
On the same counts, the results for `CC(C)c1cc2[nH]c3c(c(=O)c2c(=O)n1-c1ccccc1)CCC3` [Example 1.23, 3-isopropyl-2-phenyl-5,6,7,8-tetrahydro-1H-cyclopenta[b][1,6]naphthyridine-1,9(2H)-dione] are 5.2 µM and 414%.
For the compound `Cn1c2c(c(=O)c3c(=O)n(-c4ccccc4)c(C4CCC4)cc31)CCC2` [Example 1.24, 3-cyclobutyl-5-methyl-2-phenyl-5,6,7,8-tetrahydro-1H-cyclopenta[b][1,6]naphthyridine-1,9(2H)-dione], half-maximal activity (AC50) was put at 18.4 µM and the Emax came to 157%.
On the same counts, the results for `Cc1c(C)n(C)c2cc(C3CCC3)n(-c3ccccc3)c(=O)c2c1=O` [Example 1.25, 7-cyclobutyl-1,2,3-trimethyl-6-phenyl-1,6-naphthyridine-4,5(1 H,6H)-dione] are 16.8 µM and 87%.
On the same counts, the results for `O=c1c2c([nH]c3cc(C4CCC4)n(-c4ccccc4)c(=O)c13)CCC2` [Example 1.26, 3-cyclobutyl-2-phenyl-5,6,7,8-tetrahydro-1H-cyclopenta[b][1,6]naphthyridine-1,9(2H)-dione] are 3.3 µM and 229%.
Regarding `Cc1[nH]c2cc(C3CCC3)n(-c3ccccc3)c(=O)c2c(=O)c1C` [Example 1.27, 7-cyclobutyl-2,3-dimethyl-6-phenyl-1,6-naphthyridine-4,5(1H,6H)-dione], the AC50 came out at 3 µM and the Emax amounted to 206%.
Turning to `Cn1c2c(c(=O)c3c(=O)n(-c4ccccc4)c(C4CCC4)cc31)CCCC2` [Example 1.28, 3-cyclobutyl-5-methyl-2-phenyl-6,7,8,9-tetrahydrobenzo[b][1,6]naphthyridine-1,10(2H,5H)-dione], half-maximal activity (AC50) was put at 12.8 µM and the Emax is 257%.
